According to the METLIN SMRT retention time set (Domingo-Almenara et al. 2019):

Assay: gradient 5% acetonitrile 3 min, to 50% in 2 min, to 85% in 15 min, held 3 min, 100 µL/min
Settings: column: Zorbax Extend-C18 2.1 x 50 mm; eluents: water / acetonitrile, 0.1% formic acid
Summary of the method: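 The system's dead and dwell volumes were 40 μL and 900 μL, with a Zorbax Extend-C18 column (2.1 × 50 mm, 1.8 μm) run at 100 μL/min in water and acetonitrile containing 0.1% formic acid each. Pure standards were analyzed in mixtures of ~100 molecules by HPLC–quadrupole time-of-flight mass spectrometry in positive and negative ionization mode. Retention time was assigned from computationally picked, manually inspected adduct peaks.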

| SMILES | RP-LC retention time [s] |
| --- | --- |
| O=C(NCc1cc(F)ccc1F)C1CCc2nc(N3CCOCC3)ncc2C1 (centres undefined) | 715 |
| O=C(Cc1ccc(Cl)cc1)Nc1nnc(C2CC(=O)N(c3ccc(F)cc3)C2)o1 (centres undefined) | 772 |
| O=C(C1=Cc2ccccc2OC=C1)N1CCc2ccccc2C1 | 1090 |
| O=C(c1ccco1)N1CCCC(Nc2ncnc3c2CCC3)C1 (centres undefined) | 570 |
| CCCCn1cc(S(=O)(=O)Nc2ccc(F)cc2Cl)c2cccnc21 | 862 |
| Cc1cc(=O)n(CC(=O)Nc2cc(F)ccc2F)c(-c2ccccc2)n1 | 1010 |
| COc1ccc(-c2csc(Cc3nc(-c4ccccc4Cl)no3)n2)cc1 | 1160 |
| Cc1ccc(Cl)cc1NCc1nnc2n1CCCCC2 | 739 |
| COC(=O)c1ccc(NC(=O)C2CC(=O)N(CCc3c[nH]c4ccc(F)cc34)C2)cc1 (centres undefined) | 799 |
| COc1ccc(-n2ccn3cc(-c4ccc5c(c4)OCO5)nc3c2=O)cc1Cl | 833 |
| Brc1ccccc1-c1nn2c(-c3ccccn3)nnc2s1 | 836 |
| O=C(COc1ccc(-c2nnc3n2CCCC3)cc1)Nc1ccc(Br)cc1 | 734 |
| O=C(Nc1cccc(F)c1)C1CCCN(S(=O)(=O)c2cc(-c3noc(C4CCC4)n3)cs2)C1 (centres undefined) | 1190 |
| Cc1ccc(S(=O)(=O)N2CCC(C3CCNC3)CC2)cc1F (centres undefined) | 651 |
| O=c1c2sccc2n(Cc2nc(-c3ccc(F)cc3)no2)c(=O)n1Cc1ccc(F)cc1 | 1100 |
| COc1ccc(C2CC(=O)N(c3cccc(F)c3)C(=O)C2)cc1 | 896 |
| COc1cc(NC(=O)C(=O)c2cccn2C)cc(OC)c1 | 976 |
| CCN1C(=O)CN(C(=O)C2CC2)CC12CCOCC2 | 584 |
| COc1ccc(CN(CCC2(C(C)C)CCOC(C)(C)C2)C(C)=O)cc1OC (centres undefined) | 864 |
| CCOC(=O)N1CCC2(CC1)N=C(c1ccc(Cl)cc1)CC(c1cccc(OC)c1O)N2 (centres undefined) | 781 |
| O=C(NCc1ccc2c(c1)OCO2)c1nc(-c2ccnc(N3CCCCC3)c2)no1 | 691 |
| CC(=O)Nc1ccc(Cc2nc(-c3ccc4c(c3)oc(=O)n4C)no2)cc1 | 729 |
| CCOC(=O)C(=O)Nc1ccc(SCc2nnc(-c3ccc4c(c3)OCO4)o2)cc1 | 866 |

| SMILES | RP-LC retention time [s] |
| --- | --- |
| CCC(=O)N1CCc2sc(S(=O)(=O)NCc3ccc4c(c3)OCO4)cc2C1 | 773 |
| O=C(NC1CCCCCCC1)C1CC(=O)N(CCc2c[nH]c3ccc(F)cc23)C1 (centres undefined) | 859 |
| CC(NS(=O)(=O)c1ccc(Cl)c(-c2nnc(-c3ccccc3)o2)c1)C(=O)O (centres undefined) | 819 |
| Cc1ccc(C(=O)NCC(=O)Nc2nc3ccccc3[nH]2)c(C)c1 | 639 |
| Cc1nnc2ccc(S(=O)(=O)N(Cc3ccccc3)c3cc(F)cc(F)c3)cn12 | 899 |
| Cc1cc(S(=O)(=O)N(C)CC2CCOCC2)ccc1Cl | 963 |
| Cc1[nH]c(=O)nc(N/N=C/c2ccc(Cl)cc2)c1C(=O)Nc1ccc(Cl)cc1 | 1020 |
| COc1ccc(-c2cc3c(=O)n(CC(=O)NCC4CCCO4)ncn3n2)cc1 (centres undefined) | 720 |
| CC(CC(=O)NCCC1=CCCCC1)Cc1nnc2c(=O)n(-c3cccc(F)c3)ccn12 (centres undefined) | 813 |
| Cc1ccc(C)c(NC(=O)CCc2cccc3[nH]ccc23)c1 | 879 |
| CC(C)C(NC(=O)NCc1ccc(F)cc1)C(=O)N1CCc2ccccc21 (centres undefined) | 917 |
| Cc1cc(C)c(C(=O)N2CCC(CC(=O)NC3CCCCCC3)CC2)[nH]1 | 800 |
| Cc1ccc(NS(=O)(=O)c2cc3c(s2)CCN(C(=O)C2CC2)C3)cc1F | 880 |
| CC(C)CCNC(=O)C1(C)Cn2nc(C(=O)NCCc3ccccc3)cc2C(=O)N1C (centres undefined) | 791 |
| CCOC(=O)c1[nH]c(C)c(CN(Cc2ccco2)C(=O)Nc2ccccc2)c1C | 957 |
| O=C(CN1C(=O)NC2(CCCCC2)C1=O)Nc1ccc(F)cc1 | 731 |
| N#Cc1cc(NC(=O)Cc2nnc(-c3ccc4ncccc4c3)o2)ccc1F | 720 |
| COc1cccc(Nc2n[nH]nc2C(=O)Nc2ccccc2Br)c1 | 1060 |
| Cc1cc(NC(=O)Nc2ccc3nnc(C4CCC4)n3c2)ccc1Br | 903 |
| Cc1cc(OCC(=O)NCCN(C)C)cc(C)c1Cl | 629 |
| Cc1ccc2c(c1)N(S(C)(=O)=O)CCC(C(=O)NC(C)c1ccccc1)O2 (centres undefined) | 900 |
| Cc1nc2c(sc3nc(-c4ccccc4)ccc32)c(=O)n1CC(=O)Nc1ccc(F)cc1Cl | 1090 |
| CCOC(=O)C1C(=O)NC(N2CCN(Cc3ccccc3)CC2)=NC1c1ccco1 (centres undefined) | 578 |

| SMILES | RP-LC retention time [s] |
| --- | --- |
| O=C(Nc1cnn(-c2ncc(N3CCCC3)cn2)c1)c1ccc(C(F)(F)F)cc1 | 941 |
| CCN1CCN(C(=O)CN2C(=O)COc3ccc(C(=O)N(CC)CC)cc32)CC1 | 581 |
| OCCCc1nc2ccccc2n1Cc1ccccc1Cl | 568 |
| NC(=O)[C@@H]1C[C@H](Oc2cccnc2)CN1C(=O)CCc1nc2ccccc2s1 | 589 |
| CCCN(C)C[C@@H]1CC(F)(F)CN1C1CCN(S(=O)(=O)c2ccc(C)cc2C)CC1 | 788 |
| CC(C)(Oc1ccc(Cl)cc1)C(=O)NCCN1CCN(C(=O)c2cccs2)CC1 | 592 |
| Cc1nc2cc(C(=O)N3CCOCC3)ccc2n(C)c1=O | 596 |
| CCc1ccc(NC(=O)C2CCN(S(=O)(=O)c3ccc4c(c3)CCCC(=O)N4)CC2)cc1 | 834 |
| COc1cccc(-c2csc(Cc3nc(-c4cccc(C)c4)no3)n2)c1 | 1250 |
| CCc1nc(-c2csc(S(=O)(=O)N3CCCC(C(=O)Nc4ccccc4CC)C3)c2)no1 (centres undefined) | 1060 |
| O=C(c1ccc(F)cc1)N1CCC2(CC1)OCC(C(=O)N1CCOCC1)N2C(=O)c1cccc(F)c1 (centres undefined) | 679 |
| O=C(C1CCCO1)N1CCC(c2cnn(-c3cccc(F)c3)c2)CC1 (centres undefined) | 792 |
| O=C(C1CCCO1)N1CCn2c(nnc2-c2ccccc2)C1 (centres undefined) | 608 |
| CCc1ccc(Oc2nccnc2N2CCC(C(=O)N3CCN(c4ccccn4)CC3)CC2)cc1 | 734 |
| CCCOC(=O)C1=C(C)NC2=C(C(=O)C(C(=O)OC)C(C)C2)C1c1ccc(OC)cc1 (centres undefined) | 907 |
| Cc1csc(-c2cc(S(=O)(=O)NCc3ccc(C(C)C)cc3)cn2CC(=O)N2CCCC2)n1 | 1030 |
| COC(=O)c1cccc(C(=O)Nc2ccc(F)cc2C)n1 | 853 |
| CCn1c(=O)c(C(=O)NCc2ccc(C)cc2)nc2cccnc21 | 781 |
| Cc1scc2nc(C3CCC3)nc(N3CCC(C(=O)N4CCN(c5ccccc5F)CC4)CC3)c12 | 838 |
| CC(=O)N1CCC(C2CCN(C(=O)C3CC=CCC3)C2)CC1 (centres undefined) | 691 |
| Cc1nnc(N2CCC(C(=O)N3CCN(C)CC3)CC2)c2nn(-c3ccccc3)c(C)c12 | 573 |
| O=C(CSc1nc(-c2cccc([N+](=O)[O-])c2)cs1)N1CCOCC1 | 756 |
| Cc1ccc(-c2nc(Nc3cccc(C(F)(F)F)c3)sc2CC(=O)O)c(C)c1 | 1120 |

| SMILES | RP-LC retention time [s] |
| --- | --- |
| O=C(Nc1ccc(N2CCOCC2)cc1)C1CCCN(c2nccnc2Oc2ccccc2)C1 (centres undefined) | 852 |
| COc1ccc(CNC(=O)C2=Cc3cccc(OC)c3OC2)cc1OC | 788 |
| CCc1noc(C)c1-c1[nH]c2ccccc2c1C(=O)C(=O)N(C)C | 714 |
| Cc1nc(N2CCN(c3ccccn3)CC2)c2c(C)c(C(=O)Nc3ccc(C)c(Cl)c3)sc2n1 | 821 |
| O=c1c2sccc2n(Cc2nc(-c3ccccc3Cl)no2)c(=O)n1Cc1ccc(F)cc1 | 1110 |
| O=S(=O)(Nc1ccc(Cl)cc1F)c1c[nH]c2ncccc12 | 740 |
| Cc1noc(-c2ccnc(SCC(=O)Nc3cccc(C(F)(F)F)c3)c2)n1 | 933 |
| CC(=O)c1cccc(NC(=O)Cn2cc3c(n2)CCCCC3)c1 | 821 |
| CCN(c1nc(N)c(C(=O)N=C(N)N)nc1Cl)C(C)C | 779 |
| Cc1ccc(NS(=O)(=O)c2cc3c(s2)CCN(C(=O)C2CCC2)C3)cc1 | 864 |
| COc1ncc(C(=O)NCc2ccccc2F)cn1 | 680 |
| CC(C)Cn1c(=O)c(C(=O)NCCN2CCCCC2)nc2cccnc21 | 552 |
| Cc1ccc(CNC(=O)c2nc(-c3ccnc(N4CCCC4)c3)no2)o1 | 663 |
| COC(=O)C(Cc1c[nH]c2ccccc12)NC(=O)c1ccc(Br)cc1 (centres undefined) | 931 |
| COc1ccc(OC)c(Nc2c(-c3ccccc3)nc3cnccn23)c1 | 839 |
| Cc1cnc(-c2ccncc2)n1CC1CCN(S(=O)(=O)c2ccc3c(c2)OCCO3)C1 (centres undefined) | 626 |
| Cc1cc(NC(=O)Cc2csc(NC(=O)c3ncccn3)n2)no1 | 591 |
| CNC(=O)c1c(F)cccc1Nc1nc(Nc2cc3c(cc2OC)CCN3C(=O)CN(C)C)nc2[nH]ccc12 | 652 |
| CCOC(=O)C1=C(CN(C)Cc2ccccc2)NC(=O)NC1c1cccc(OC)c1OC (centres undefined) | 659 |
| COc1ccccc1C(=O)N1CCC2(CC1)c1nccn1-c1ccccc1CN2CC(C)C | 692 |
